Experimental findings from patent publication US8946266B2, “Substituted triazole and imidazole derivatives as gamma secretase modulators” (Janssen Pharmaceuticals, Inc., priority 2009, dated 2015) are described below.

Holding throughout (type): cell-based
One assay deals with Aβ42. Put plainly: γ-secretase-modulating activity, Method 2: Aβ42 Alphalisa in supernatant of SKNBE2 cells carrying APP 695-wild type (Table 3b). The settings on record: overnight. Summed up: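 Aβ42 in the supernatant was quantified by AlphaLISA sandwich (JRF/cAβ42/26 with JRF/AβN/25). Cells were wild-type APP695 SKNBE2, exposed to compound overnight at 37° C., 5% CO2. Data were normalised to untreated maximum and fitted with a four-parameter curve to give IC50.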

For assay [1], the system named is Aβtotal. Put plainly: γ-secretase-modulating activity, Method 1: Aβtotal sandwich ELISA in supernatant of SKNBE2 cells carrying APP 695-wild type. The settings on record: Table 3a, 18 h, averaged IC50 values. As to the method:
Pharmacology A) Screening of the Compounds of the Invention for γ-Secretase-Modulating Activity A1) Method 1
Screening was carried out using SKNBE2 cells carrying the APP 695-wild type, grown in Dulbecco's Modified Eagle's Medium/Nutrient mixture F-12 (DMEM/NUT-mix F-12) (HAM) provided by Gibco (cat no. 31330-38) containing 5% Serum/Fe supplemented with 1% non-essential amino acids. Cells were grown to near confluency.
The screening was performed using the assay as described in Citron et al (1997) Nature Medicine 3: 67. Briefly, cells were plated in a 96-well plate at about 10^5 cells/ml one day prior to addition of compounds. Compounds were added to the cells in Ultraculture (Lonza, BE12-725F) supplemented with 1% glutamine (Invitrogen, 25030-024) for 18 h. The media were assayed by two sandwich ELISAs, for Aβ42 and Aβtotal. Toxicity of the compounds was assayed by WST-1 cell proliferation reagent (Roche, 1 644 807) according to the manufacturer's protocol.
To quantify the amount of Aβtotal in the cell supernatant, samples and standards were added to a 6E10-coated plate. The plate was allowed to incubate overnight at 4° C. in order to allow formation of the antibody-amyloid complex. Following this incubation and subsequent wash steps a selective anti-Aβ-antibody conjugate (biotinylated 4G8) was added and incubated for a minimum of 1 h in order to allow formation of the antibody-Amyloid-antibody-complex. After incubation and appropriate wash steps, a Streptavidine-Peroxidase-Conjugate was added, followed 30 minutes later by an addition of Quanta Blu fluorogenic peroxidase substrate according to the manufacturer's instructions (Pierce Corp., Rockford, Ill.).
(In general: An ELISA detects its analyte on a solid surface through an enzyme-linked reagent.)

The test system of assay [2] is Aβtotal. Put plainly: γ-secretase-modulating activity, Method 2: Aβtotal Alphalisa in supernatant of SKNBE2 cells carrying APP 695-wild type (Table 3b). Conditions: overnight, read-out: IC50 Aβtot. The method, boiled down:
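Secreted Aβtotal was quantified by AlphaLISA pairing an N-terminal antibody (JRF/AβN/25) with biotinylated mid-region 4G8. Wild-type APP 695 SKNBE2 cells received serially varied compound overnight at 37 °C; IC50 came from a 4-parameter nonlinear regression of percent of control against log dose.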
(Bead proximity is the source of the signal in Alpha formats.)

Structures are written as SMILES.

What is called IC50 is the concentration that inhibits the measured activity by half. For the compound `COc1cc(-c2nc(-c3ccccc3)n(C)n2)ccc1-n1cnc(C)c1` [Compound 9], the IC50 in the assay with Aβ42 (Homo sapiens) is 0.603 µM; with Aβtotal [1] (Homo sapiens) it was > 30 µM; in the assay on Aβtotal [2] (Homo sapiens) it was > 10 µM.

In the case of `COc1cc(-c2nc(C)c(-c3ccccc3)[nH]2)ccc1-n1cnc(C)c1` [Compound 11], the IC50 was 0.182 µM in the assay on Aβ42 (Homo sapiens), > 3 µM in the assay with Aβtotal [1] (Homo sapiens) and > 10 µM in the assay on Aβtotal [2] (Homo sapiens).

Take `COc1cc(-c2nc(Nc3ccc(F)cc3C(F)(F)F)n(C)n2)ccc1-n1cnc(C)c1` [Compound 15]: the IC50 in the assay on Aβ42 is 0.05 µM; in the assay on Aβtotal [1] it was 11.5 µM; in the assay with Aβtotal [2], > 10 µM.

`COc1cc(-c2nc(Nc3cccc(C(F)(F)F)c3)n(C)n2)ccc1-n1cnc(C)c1` [Compound 146]: the results for the 50% inhibitory concentration (IC50) in the assay on Aβ42 and with Aβtotal [2] were 0.015 µM and 4.07 µM, respectively.
